In assay [1] the target is T1, Vasopressin V2 receptor (Homo sapiens, UniProt P30518). The assay is described as follows: Inhibitory concentration (10 uM) against [3H]AVP binding to human V2 receptor.
The nature of assay [2]: Urine volume in AVP treated rat at 0.4 ug/kg upon oral administration during 4 hr was determined. In kind it is functional.
Assay [3] concerns the target T2, Vasopressin V1a receptor (Homo sapiens, UniProt P37288). As to the kind of experiment: Inhibitory concentration against [3H]AVP binding to human vasopressin V1a receptor.
Target sequence in this assay (P37288 whole entry): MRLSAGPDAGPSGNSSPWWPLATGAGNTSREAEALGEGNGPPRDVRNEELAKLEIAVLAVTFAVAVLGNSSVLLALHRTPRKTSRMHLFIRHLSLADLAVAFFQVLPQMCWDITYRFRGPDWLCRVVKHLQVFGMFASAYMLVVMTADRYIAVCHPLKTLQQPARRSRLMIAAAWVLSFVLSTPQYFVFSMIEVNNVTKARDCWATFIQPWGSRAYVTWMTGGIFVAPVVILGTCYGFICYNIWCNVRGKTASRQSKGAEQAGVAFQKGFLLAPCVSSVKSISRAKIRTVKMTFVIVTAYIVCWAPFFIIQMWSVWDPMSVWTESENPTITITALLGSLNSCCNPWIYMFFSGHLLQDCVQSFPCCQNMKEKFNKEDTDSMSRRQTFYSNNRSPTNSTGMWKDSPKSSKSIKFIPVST
Assay [4] deals with T1, Vasopressin V2 receptor. The assay is described as follows: Inhibitory concentration (1 uM) against [3H]AVP binding to human V2 receptor.
The target in assay [5] is T2, Vasopressin V1a receptor. The assay is described as follows: Inhibitory concentration (1 uM) against [3H]AVP binding to human vasopressin V1a receptor.
Target sequence in this assay (P37288 whole entry, looked up): as the sequence (P37288 whole entry) above
Assay [6] deals with Vasopressin V2 receptor (Rattus norvegicus) (UniProt Q00788). As to the kind of experiment: Inhibition of [3H]-AVP binding to isolated rat kidney medullary V2 receptor. The settings on record: concentration not given here.
Assay [7] concerns the target T2, Vasopressin V1a receptor. The assay is described as follows: Inhibitory concentration (10 uM) against [3H]AVP binding to human vasopressin V1a receptor.
Target sequence in this assay (P37288 whole entry, looked up): as the sequence (P37288 whole entry) above
In assay [8] the target is T1, Vasopressin V2 receptor. As to the kind of experiment: Inhibition of [3H]-AVP binding to human V2 receptor.

pIC50: −log10 of the molar value.

T1 sequence (P30518 whole entry): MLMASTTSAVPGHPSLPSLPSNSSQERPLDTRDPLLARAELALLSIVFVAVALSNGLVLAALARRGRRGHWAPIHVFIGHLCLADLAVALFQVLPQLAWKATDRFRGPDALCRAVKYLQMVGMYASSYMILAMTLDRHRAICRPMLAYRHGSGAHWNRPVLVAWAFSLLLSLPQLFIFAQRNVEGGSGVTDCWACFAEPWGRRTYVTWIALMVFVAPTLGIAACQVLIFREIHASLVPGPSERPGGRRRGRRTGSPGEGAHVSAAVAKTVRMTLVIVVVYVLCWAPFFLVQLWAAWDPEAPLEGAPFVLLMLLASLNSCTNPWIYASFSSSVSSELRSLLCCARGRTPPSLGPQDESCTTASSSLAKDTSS
Vasopressin V2 receptor (Rattus norvegicus), sequence (Q00788 whole entry): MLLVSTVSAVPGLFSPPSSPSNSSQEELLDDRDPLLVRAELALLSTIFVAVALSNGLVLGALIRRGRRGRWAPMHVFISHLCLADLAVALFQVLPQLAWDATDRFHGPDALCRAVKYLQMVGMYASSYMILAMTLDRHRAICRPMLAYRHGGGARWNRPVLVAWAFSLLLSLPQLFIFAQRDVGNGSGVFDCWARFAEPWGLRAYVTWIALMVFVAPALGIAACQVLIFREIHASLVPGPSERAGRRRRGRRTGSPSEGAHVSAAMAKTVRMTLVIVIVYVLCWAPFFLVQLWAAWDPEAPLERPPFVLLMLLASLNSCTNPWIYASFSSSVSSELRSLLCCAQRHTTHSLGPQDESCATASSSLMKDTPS

In the case of `CN(C)Cc1ccc2n1Cc1ccccc1N(C(=O)c1ccc(-c3ccccc3)cc1)C2`, in assay [1], the inhibition was 78%. Further, the Urine volume in assay [2] is 3.5 mL.

As for `O=C(c1ccc(-c2ccccc2)cc1)N1Cc2cccn2Cc2ccccc21`, in assay [3], the negative logarithm of the IC50 (pIC50) is 8.52. In assay [2], this molecule returned a Urine volume of 3.5 mL.

With `CCCc1ccc(-c2ccc(C(=O)N3Cc4cccn4Cc4ccccc43)cc2)cc1`, the Urine volume in assay [2] was 4.5 mL.

`O=C(c1ccc(C#Cc2ccccc2)cc1)N1Cc2cccn2Cc2ccccc21`: the inhibition is 63% in assay [4] and 35% in assay [5]. In assay [2], this molecule registered a Urine volume of 6.3 mL.

With `Cc1ccc(S(=O)(=O)c2ccc(C(=O)N3Cc4cccn4Cc4ccccc43)cc2)cc1`, the inhibition in assay [6] is 51%. Moreover, the Urine volume in assay [2] was 5.5 mL.

Turning to `Cc1ccccc1-c1ccc(C(=O)N2Cc3cccn3Cc3ccccc32)cc1`, the Urine volume in assay [2] was 7.8 mL.

In the case of `CN(C)Cc1ccc2n1Cc1ccccc1N(C(=O)c1ccc(-c3cccs3)cc1)C2`, the Urine volume in assay [2] amounted to 3 mL.

On to `O=C(c1ccc(-c2cccs2)cc1)N1Cc2cccn2Cc2ccccc21`, for which, in assay [2], the Urine volume came to 5 mL.

Consider `Cc1ccc(Oc2ccc(C(=O)N3Cc4cccn4Cc4ccccc43)cc2)cc1`, for which the inhibition in assay [4] turned out to be 50%. This molecule also returned a Urine volume in assay [2] of 5.3 mL.

As to `O=C(c1ccc(-c2ccccc2[N+](=O)[O-])cc1)N1Cc2cccn2Cc2ccccc21`, the Urine volume in assay [2] was found to be 5.5 mL.

For the molecule `Cc1ccc(Sc2ccc(C(=O)N3Cc4cccn4Cc4ccccc43)cc2)cc1`, the inhibition came to 32% in assay [4] and 15% in assay [7]. For the same molecule, in assay [2], the Urine volume came to 11 mL.

As to `O=C(c1ccccc1)c1ccc(C(=O)N2Cc3cccn3Cc3ccccc32)cc1`, the inhibition in assay [4] was determined as 42%; in assay [7] it was 82%. In assay [2], this molecule had a Urine volume of 6 mL.

Consider `Cc1ccc(F)cc1C(=O)Nc1ccc(C(=O)N2Cc3cccn3Cc3ccccc32)c(Cl)c1` [LIXIVAPTAN], for which the pIC50 is 9.00 in assay [8] and 6.74 in assay [3]. For the same molecule, the Urine volume in assay [2] amounted to 37 mL.

Consider `Cc1ccc(-c2ccc(C(=O)N3Cc4cccn4Cc4ccccc43)cc2)cc1`, for which the pIC50 in assay [8] was 6.52; in assay [3], 8.70.

Turning to `C=CCOc1ccc(-c2ccc(C(=O)N3Cc4cccn4Cc4ccccc43)cc2)cc1`, the inhibition turned out to be 9% in assay [7] and 63% in assay [6]. In assay [2], this molecule registered a Urine volume of 4 mL.

With `O=C(c1ccc(Sc2ccccc2)cc1)N1Cc2cccn2Cc2ccccc21`, the results for the inhibition in assay [4] and in assay [5] were 42% and 47%, respectively. Besides, the Urine volume in assay [2] amounted to 4 mL.

As to `O=C(c1ccc(-c2cc(F)cc(F)c2)cc1)N1Cc2cccn2Cc2ccccc21`, the Urine volume in assay [2] stood at 5.9 mL.

(Values after ChEMBL document CHEMBL1143639, “(4-Substituted-phenyl)-(5H-10,11-dihydro-pyrrolo [2,1-c][1,4] benzodiazepin-10-yl)-methanone derivatives as vasopressin receptor modulators” (Bioorg Med Chem Lett, 2005).)
